Experiments:
Type in all cases: cell-based
[1] = tested on: Chlamydia trachomatis serovar L2 (strain 434/Bu); assay: Infectious progeny inhibition assay, C. trachomatis L2; conditions: Chlamydia trachomatis, HeLa, generation of infectious progeny EBs in HeLa cells, MOI 0.2, 36 hpi, 1 to 32 μM; read-out: IC50 (μM) Mean (95% confidence interval) Ct L2
Description: (§1) Chlamydia trachomatis serovars D (strain UW-3/CX) and L2 (strain 434/Bu) were purchased from ATCC. HeLa cells purchased from ATCC were routinely cultured in DMEM supplemented with 10% heat-inactivated FBS (Sigma-Aldrich) and 10 μg/mL gentamicin at 37°C in a humidified atmosphere of 5% and were used for chlamydial propagation and cell culture experiments. EBs were purified by Renografin density gradient and stored in sucrose-phosphate-glutamate (SPG) buffer at -80°C [20]. A mouse polyclonal anti-MoPn (C. muridarum strain Nigg II) antibody, which was produced in our laboratory and cross-reacting with C. trachomatis D and L2, was used as a primary antibody for both stains detection.
(§2) Cell monolayers seeded onto coverslips in a 24-well plate were infected with C. trachomatis at a multiplicity of infection (MOI) of 0.2 inclusion-forming units (IFU) per cell. Unless noted, individual compound was added into culture medium at indicated concentrations simultaneously at the time of inoculation. 0.5% DMSO was used as negative control and 11.25 μM tetracycline (Sigma-Aldrich) as positive control. For C. trachomatis D, an additional centrifugation (900 × g at room temperature for 1 h) was applied to facilitate the infection. At 36 hours postinfection (hpi), infected cells were fixed by precooled methanol and then subjected to sequential staining processed with a primary antibody and a FITC-conjugated secondary antibody. Evans blue was used as cytoplasm counterstain. Images were shot by an Olympus IX51 fluorescence microscope.
(§3) Cells monolayers seeded in 48-well plate were infected and treated with chemicals as above. After incubation for 36 hours, infected cells were washed twice, scraped off, and lysed by sonication to release the infectious progeny EBs. Then the lysates were used to reinfect fresh cell monolayers grown in 96-well plate following 1 : 10 serial dilution. The inclusion counts were obtained by immunofluorescence staining as above to calculate the number of infectious progeny EBs in each sample. Percent inhibition was calculated based on EB counts in compound-treated samples relative to DMSO-treated negative control.
(§4) Data from the three independent experiments were presented as mean ± standard deviations (SD) and were subjected to pairwise Student's t-tests. p < 0.05 and p < 0.01 are considered statistically significant and statistically highly significant, respectively. The IC50 values, defined as the concentration of compound at which the generation of infectious progeny EBs was reduced by 50% relative to negative control, were calculated by nonlinear regression from percent inhibition data using the GraphPad Prism 5 software, and presented as mean (95% confidence interval).

[2] = tested on: Chlamydia trachomatis serovar D (strain UW-3/CX); assay: Infectious progeny inhibition assay, C. trachomatis D; conditions: Chlamydia trachomatis, HeLa, generation of infectious progeny EBs in HeLa cells, MOI 0.2, 36 hpi, 1 to 32 μM; read-out: IC50 (μM) Mean (95% confidence interval) Ct D
Description: as §1, §2, §3, §4

[3] = WST-1 cell viability; conditions: human, uninfected HeLa cells, WST-1, relative to DMSO control as 100%
Description: Uninfected HeLa cells were cultured with 32 μM (the highest concentration used in antichlamydial analysis) of individual compound or 0.5% DMSO for 48 h. After 10 μL of WST-1 reagent was added, cells were incubated for an additional 1 h, and absorbance at 450 nm was recorded. The viability of compound-treated cells was calculated by the absorbance relative to that of DMSO control setting as 100% [22].

| Compound | IC50 [1] [µM] | IC50 [2] [µM] | viability at 48 h, 32 µM [3] [%] |
| --- | --- | --- | --- |
| Brc1ccc(C2C3CC(c4ccccc4)N(c4ccccc4)C3ON2c2ccccc2)cc1 (stereo not drawn) [Compound 3] | 8.67 | 20.9 | 99.9 |
| COc1ccc(N2C(c3ccccc3)CC3C(c4ccccc4Br)N(c4ccccc4)OC32)cc1 (stereo not drawn) [Compound 4] | 11.2 | > 32 | 97.5 |
| COc1ccc(N2C(c3ccccc3)CC3C(c4cccc(Br)c4)N(c4ccccc4)OC32)cc1 (stereo not drawn) [Compound 5] | 15.5 | > 32 | 95.2 |
| COc1ccc(N2C(c3ccccc3)CC3C(c4ccc(Br)cc4)N(c4ccccc4)OC32)cc1 (stereo not drawn) [Compound 6] | 9.08 | 16.9 | ~90 |
| Brc1ccccc1C1C2CC(c3ccccc3)N(c3ccccc3)C2ON1c1ccccc1 (stereo not drawn) [Compound 7] | 19.1 | > 32 | ~90 |
| Brc1ccccc1C1c2ccccc3cccc2N2C(c4ccccc4)CC3C2ON1c1ccccc1 (stereo not drawn) [Compound 8] | 25.4 | 28.6 | 102 |
| Fc1ccc(N2C(C3CCCCC3)CC3C(c4ccccc4Br)N(c4ccccc4)OC32)cc1 (stereo not drawn) [Compound 9] | > 32 | 19.6 | 96.5 |
| Fc1ccc(N2C(c3cccs3)CC3C(c4ccccc4Br)N(c4ccccc4)OC32)cc1 (stereo not drawn) [Compound 10] | 17.4 | 15.4 | ~90 |
| Cc1ccc(C2CC3C(c4ccccc4Br)N(c4ccccc4)OC3N2c2ccccc2)cc1 (stereo not drawn) [Compound 11] | > 32 | 23.5 | 99.7 |
| O=[N+]([O-])c1ccc(C2CC3C(c4ccccc4Br)N(c4ccccc4)OC3N2c2ccccc2)cc1 (stereo not drawn) [Compound 12] | 17.5 | 12.5 | 104 |
| Cc1ccc(N2C(c3ccccc3)CC3C(c4ccccc4Br)N(c4ccccc4)OC32)cc1 (stereo not drawn) [Compound 13] | > 32 | 16.3 | 95.7 |
| Brc1ccccc1C1C2CC(/C=C/c3ccccc3)N(c3ccccc3)C2ON1c1ccccc1 (stereo not drawn) [Compound 14] | 16.8 | 16.3 | 98 |
| O=[N+]([O-])c1ccc(C2CC3C(c4ccccc4Cl)N(c4ccccc4)OC3N2c2ccccc2)cc1 (stereo not drawn) [Compound 15] | 9.77 | 12.2 | 104 |
| Cc1ccc(C2CC3C(c4ccccc4)N(c4ccccc4)OC3N2c2ccc(C)cc2)cc1 (stereo not drawn) [Compound 16] | 13.5 | 5.93 | 96.5 |
| Brc1ccccc1C1C2CC(c3ccccc3Br)N(c3ccccc3)C2ON1c1ccccc1 (stereo not drawn) [Compound 17] | > 32 | 27.6 | 114 |
| Fc1ccc(N2C(c3cccc4ccccc34)CC3C(c4ccccc4Br)N(c4ccccc4)OC32)cc1 (stereo not drawn) [Compound 18] | > 32 | 21 | 106 |

Source: paper PMC7984888, “Inhibitory Activity of Pyrroloisoxazolidine Derivatives against Chlamydia trachomatis” (BioMed Research International, 2021)
